According to PMC10828444, “Selective inhibition of overactive warmth-sensitive Ca^2+-permeable TRPV3 channels by antispasmodic agent flopropione for alleviation of skin inflammation” (The Journal of Biological Chemistry, 2023):
pIC50: −log10 of the molar value. Like-named read-outs stand apart in the source and are kept apart here.

Assays:
hTRPV3 single channel = target: T1, hTRPV3 single channel (Homo sapiens, UniProt Q8NET8); test: Inside-out single-channel recordings of TRPV3 in HEK293 cells; assay type: cell-based; details: agonist 2-APB 30 μmol/L alone, −60 mV
T1 construct: expressed in transfected cells; host or cells: HEK293
T1 sequence (Q8NET8 1-790): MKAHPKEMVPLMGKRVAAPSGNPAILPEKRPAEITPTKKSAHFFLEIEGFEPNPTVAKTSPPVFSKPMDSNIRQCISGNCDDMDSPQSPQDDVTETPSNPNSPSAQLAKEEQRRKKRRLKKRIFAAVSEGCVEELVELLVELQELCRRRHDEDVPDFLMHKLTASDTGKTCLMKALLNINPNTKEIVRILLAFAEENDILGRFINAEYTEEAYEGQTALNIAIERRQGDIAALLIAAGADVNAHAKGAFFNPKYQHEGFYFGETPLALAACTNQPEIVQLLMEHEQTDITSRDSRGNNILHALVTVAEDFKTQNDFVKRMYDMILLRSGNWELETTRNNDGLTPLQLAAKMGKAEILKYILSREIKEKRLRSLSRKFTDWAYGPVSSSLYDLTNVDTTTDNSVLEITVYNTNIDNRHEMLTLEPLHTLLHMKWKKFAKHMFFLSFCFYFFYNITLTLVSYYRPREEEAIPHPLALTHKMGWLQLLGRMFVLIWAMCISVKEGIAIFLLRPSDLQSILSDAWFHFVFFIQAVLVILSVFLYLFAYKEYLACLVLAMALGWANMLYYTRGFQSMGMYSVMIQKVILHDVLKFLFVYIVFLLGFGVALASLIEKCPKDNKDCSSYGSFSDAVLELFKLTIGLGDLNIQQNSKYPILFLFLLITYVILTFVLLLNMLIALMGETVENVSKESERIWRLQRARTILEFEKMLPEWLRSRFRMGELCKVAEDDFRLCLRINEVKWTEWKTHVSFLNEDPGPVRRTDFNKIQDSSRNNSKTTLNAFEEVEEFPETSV
Source text: For single-channel recordings, borosilicate glass pipettes were pulled from borosilicate glass capillaries and fire-polished to the resistance between 6 and 10 MΩ using a DMZ universal electrode puller (Zeitz-Instruments, GmbH). For inside-out single-channel recordings, both pipette and external solutions contained (in mM): 130 NaCl, three HEPES, and 0.2 EDTA (pH = 7.4). Membrane potential was clamped at −60 mV and currents were digitized at 10 kHz and filtered at 2 kHz.

TRPV3 = details: cited from earlier work
TRPM8 = test system: TRPM8; parameters: method as in PMID 33876725; details: ref [18]; read-out: IC50 TRPM8 currents; cited from earlier work
TRPV2 = test system: TRPV2; parameters: method as in PMID 33876725; details: ref [18]; read-out: IC50 TRPV2 currents; cited from earlier work
TRPV4 = test system: TRPV4; parameters: method as in PMID 30108138, PMID 27160770; details: ref [16], [42]; cited from earlier work
TRPV1 = test system: TRPV1; parameters: method as in PMID 30108138, PMID 27160770; details: ref [16], [42]; cited from earlier work
TRPA1 = test system: TRPA1; parameters: method as in PMID 30377214; details: ref [17]; cited from earlier work

For NCCOB(c1ccccc1)c1ccccc1 [2-APB, 2-aminoethoxydiphenyl borate], the single-channel conductance (hTRPV3 single channel) was “about 170.9 ± 4.8 pS” and the single-channel open probability (hTRPV3 single channel) was 0.75.
For CCCCOc1ccc(C(=O)CCN2CCCCC2)cc1 [dyclonine], the pIC50 (TRPV3; ref [18], read-out: IC50 TRPV3 currents) is listed as ~5.49, the pIC50 (TRPM8) is listed as 4.09 and the pIC50 (TRPV2) is listed as 4.51.
In the case of COc1ccc2ccc(=O)oc2c1CC=C(C)C [osthole], the pIC50 (TRPV3; ref [16], [42], read-out: IC50 TRPV3) is listed as ~4.43, the “inhibition of TRPV4” value (TRPV4) is listed as “weak inhibition” and the “inhibition of TRPV1” value (TRPV1) is listed as “weak inhibition”.
In the case of forsythoside B, the “inhibition of TRPA1 currents” value (TRPA1) is listed as “weak inhibition” and the pIC50 (TRPV3; ref [17], read-out: IC50 TRPV3 currents) is listed as ~5.17.
